In the METLIN SMRT retention time set (Domingo-Almenara et al. 2019) one finds RP-LC retention time data, which are given here for 79 compounds.

This data set is described as follows: gradient 5% acetonitrile 3 min, to 50% in 2 min, to 85% in 15 min, held 3 min, 100 µL/min. The note with it: column: Zorbax Extend-C18 2.1 x 50 mm; eluents: water / acetonitrile, 0.1% formic acid. The method in brief:
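Standards, all pure, were combined into mixtures of ~100 molecules and run at 100 μL/min on a Zorbax Extend-C18 column (2.1 × 50 mm, 1.8 μm) with water and acetonitrile, each containing 0.1% formic acid. A coupled quadrupole time-of-flight mass spectrometer operated in positive and negative ionization mode. Retention time values come from computationally picked adduct peaks, each inspected manually.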
On to `Cc1ccccc1-c1noc(Cn2cnc3c(oc4ccccc43)c2=O)n1`, for which the RP-LC retention time stood at 986 s.
To `COCCNC(=O)N1CCCn2nc(-c3ccc(C(F)(F)F)cc3)cc2C1` belongs 839 s.
The compound `COc1ccc(-c2noc(C3CCCN3C(=O)c3ccc(Cl)cc3OC)n2)cc1OC` (centres undefined) had an RP-LC retention time of 934 s.
To `Cc1ccc(Nc2c(-c3ccc(N(C)C)cc3)nc3cc(C)ccn23)cc1` belongs 828 s; to `Cc1cnc(C2CN(C(=O)c3ccnn3C)C2)n1CC1CC1`, 568 s.
For `CC(=O)N1CCc2cc(N3CC(C(=O)Nc4ccccc4Cl)CC3=O)ccc21` (centres undefined) the value was 701 s; for `COc1cccc(-c2noc(C3CCCN3C(=O)Nc3ccc(C)cc3)n2)c1` (centres undefined), 983 s.
To `Cc1cc(C(=O)Nc2c3c(nn2C)CCC3)no1` belongs 611 s.
Consider `CCn1cc(-c2nc(C(=O)N3CCc4ccccc43)cs2)c2cccnc21`, for which the RP-LC retention time was 1080 s.
For `CCOc1ccc(-c2nc(-c3ccc4c(c3)N(CC)C(=O)CO4)no2)cc1` the value was 1240 s.
Consider `COC(=O)c1ccsc1NC(=O)c1ccc2c(c1)OCCO2`, for which the RP-LC retention time amounted to 979 s.
For `Cc1cccc(-c2ncccc2CNS(=O)(=O)c2ccc(C#N)cc2)c1` the value was 697 s.
For `Cc1cc(=O)n(CC(=O)Nc2ccc(F)cc2F)c(N2CCOCC2)n1` the value was 651 s; for `COc1ccc(S(=O)(=O)N2CCc3nc(-c4ccc(F)cc4)ncc3C2)cc1`, 1050 s.
To `CC(=O)N1CCc2ccccc2C1C(=O)NCc1cc(F)cc(F)c1` (centres undefined) belongs 764 s; to `COc1ccc(Cn2nc3c(S(=O)(=O)N4CCc5ccccc5C4)cccn3c2=O)cc1F`, 945 s.
Compound `COc1ccc(-c2nnc(COc3ccc(NC(=O)c4ccccn4)cc3)o2)cc1` showed an RP-LC retention time of 930 s.
In turn, `C=CCNC(=O)C1CCN(Cc2noc(-c3ccc(F)cc3)n2)CC1` yielded an RP-LC retention time of 613 s.
On to `CCN(CC)C(=O)Cn1c(Cc2ccc(Cl)cc2)nc2ccccc21`, for which the RP-LC retention time worked out at 693 s.
For the compound `O=C(NCc1ccc2c(c1)OCO2)c1c(O)c2cccnc2[nH]c1=O`, the RP-LC retention time worked out at 889 s.
To `CC(=O)c1sc2nc(SC/C=C/c3ccccc3)[nH]c(=O)c2c1C` belongs 977 s; to `O=C(Cc1cccc(F)c1)N1CCN(C(=O)c2cc(-c3cccnc3)n[nH]2)CC1`, 847 s; to `COc1cc(NS(=O)(=O)c2ccc(NC(=O)c3ccc(Cl)cc3)cc2)nc(OC)n1`, 868 s.
To `COC(=O)c1ncn2c1C(=O)N(Cc1cccc(C)c1)C(C)(C(=O)NCc1ccccc1)C2` (centres undefined) belongs 759 s; to `Cc1oc(-c2ccccc2)nc1Cc1noc(-c2cccc(F)c2)n1`, 1160 s; to `CCCCNC(=O)Nc1ccccc1CC`, 870 s.
`O=C(CCc1nc2ccccc2s1)NCC12CCCC=C1N(CC1CC1)C(=O)CC2` (centres undefined): the RP-LC retention time stood at 863 s.
To `CN1C(=O)C2CCCCN2c2ccc(C(=O)N3CCN(C(=O)c4ccco4)CC3)cc21` (centres undefined) belongs 701 s; to `CCc1nc2cc(-c3noc(-c4ccc(OC)cc4)n3)ccc2o1`, 1180 s; to `O=C(CC1CCN(C(=O)c2ccc3nc(-c4ccccc4)oc3c2)CC1)NCc1ccco1`, 789 s.
For `COc1ccc2nc(C)cc(SCC(=O)Nc3csc4nc(=O)c(C)nn34)c2c1` the value was 590 s; for `CCn1cc(C(=O)Nc2ccc(F)c(F)c2)c(S(=O)(=O)N2CCSCC2)n1`, 1010 s.
For `Cc1ccc(NC(=O)c2ccc(CN3CCN(C)CC3)cc2)cc1Nc1nccc(-c2cccnc2)n1`, the RP-LC retention time was 640 s.
To `CCOC(=O)N1CCN(c2nc(F)c3c(c2F)S(=O)(=O)CCN3CC2CCCO2)CC1` (centres undefined) belongs 958 s; to `Cc1ccc2ncn(C3CCN(C(=O)Nc4ccc(F)cc4F)CC3)c(=O)c2c1`, 770 s.
To `CCOc1ccccc1C(=O)NC1CCN(C(=O)c2cn(-c3ccc(C)c(C)c3)nn2)CC1` belongs 873 s; to `CCN(CC)S(=O)(=O)c1ccc2c(c1)N(CC(=O)N(C)Cc1ccccc1)C(=O)C1CCCCN21` (centres undefined), 895 s; to `O=C(NC1CC1)C1CC(=O)N(c2ccc3c(c2)CCN3C(=O)C2CCC2)C1` (centres undefined), 660 s.
In turn, `O=c1c2scc(-c3ccc(Br)cc3)c2ncn1Cc1ccc(F)cc1` yielded an RP-LC retention time of 1180 s.
To `Cc1nn(CC(=O)N2CCN(C(C)C)CC2)c(=O)c2nc(-c3ccccc3)sc12` belongs 620 s.
For `Cc1nc(-c2nc(-c3cccs3)cs2)cn1CC(=O)N1CCN(c2ccccc2)CC1` the value was 813 s.
To `O=C(CCC1CCN(c2cc(NC3CC3)ncn2)CC1)N1CCN(c2ncccn2)CC1` belongs 615 s; to `CS(=O)(=O)N1CC(c2noc(-c3cccnc3)n2)C2(CCOCC2)C1` (centres undefined), 660 s; to `CCn1c(-c2ccccc2)cc(C(=O)N(C)C)c1C`, 697 s.
Compound `COc1ccc(Cl)cc1S(=O)(=O)N1CCCC(C(=O)NCc2ccncc2)C1` (centres undefined) gave an RP-LC retention time of 622 s.
To `CCc1nnc(-c2ccc3ccn(CC(=O)Nc4cc(C)ccc4OC)c3c2)o1` belongs 932 s; to `CCCn1c(=O)sc2cc(S(=O)(=O)N3CCC(C(=O)N4CCCC4)CC3)ccc21`, 807 s; to `CC(C)Oc1ccc(-c2noc(CN3C(=O)COc4cc(Cl)ccc43)n2)cc1`, 1190 s.
To `COc1ccc(NC(=O)c2cnc(N3CCN(c4ccc(F)cc4)CC3)nc2N)cc1` belongs 776 s.
In the case of `O=C(NCc1ccco1)C(=O)NCC1OCCN1S(=O)(=O)c1ccc([N+](=O)[O-])cc1` (centres undefined), the RP-LC retention time was determined as 745 s.
To `Cc1cccc(NC(=O)C2CCN(S(=O)(=O)c3cc(C(=O)N4CCC(C)CC4)n(C)c3)CC2)n1` belongs 722 s.
To `O=C(c1sc2cc(F)ccc2c1Cl)N1CCN(c2ccccn2)CC1` belongs 693 s; to `COCCN1C(=O)c2ccccc2C(C(=O)NCCCN2C(C)CCCC2C)C1c1cccs1` (centres undefined), 633 s; to `CCOC(=O)c1cc(S(=O)(=O)N2CCCC2C(=O)Nc2ccc(C)c(C)c2)cn1C` (centres undefined), 1020 s.
To `CCOCC(=O)Nc1cccc(OCc2nnc(-c3ccc(OC)cc3)o2)c1` belongs 830 s.
`Cc1ccc(S(=O)(=O)NC2CCN(C(=O)C3CCC3)CC2)cc1` came in with an RP-LC retention time of 761 s.
For `Cc1csc(-c2ccc(N3CCN(C(=O)c4ccncc4)CC3)nc2)n1` the value was 632 s; for `CCC(C)NC(=O)c1cc(-c2ccc(Cl)cc2)[nH]c1C` (centres undefined), 923 s; for `CN(C)CCn1ccc2ccn(CC(=O)NCc3ccccc3)c(=O)c21`, 606 s.
With `O=C(NCCC1=CCCCC1)C1CCCN(c2ncnc3c2oc2ccccc23)C1` (centres undefined), the RP-LC retention time is 872 s.
For `CCN(CC)CCNc1ncnc2c1cnn2-c1ccc(C)cc1` the value was 642 s; for `CN1C2CCC1CC(OC(c1ccccc1)c1ccccc1)C2` (centres undefined), 784 s.
For `O=C(c1cnn(-c2ccccc2)c1-n1cccc1)N1CCN(c2ccccn2)CC1` the value was 623 s.
To `Cn1cc(CCN2CCC(C(=O)N3CCN(c4ccccc4)CC3)CC2)c2cccnc21` belongs 617 s; to `Oc1ccc(C2NCCc3c2[nH]c2ccc(Cl)cc32)cc1O` (centres undefined), 620 s.
Compound `COc1cc(NS(=O)(=O)c2c(C)nn(-c3ccc(-c4ccc(C)cc4)nn3)c2C)cc(OC)c1` gave an RP-LC retention time of 1120 s.
`Cc1cccc(NC(=O)Cn2nc3c(Oc4cccc(F)c4)nccn3c2=O)c1` returned an RP-LC retention time of 864 s.
For `Cc1ccc(CN2CCN(C3CCN(S(=O)(=O)c4cc(F)ccc4F)CC3)C(=O)C2=O)cc1` the value was 910 s; for `CCn1ccc(C(=O)Nc2ccccc2)n1`, 801 s; for `CCOC(=O)Cn1c(=O)c2c(nc3n2CCCCN3c2ccc(OCC)cc2)n(C)c1=O`, 944 s.
In the case of `Cn1c(CCNC(=O)c2ccc(Cl)s2)nc2cccnc21`, the RP-LC retention time was found to be 626 s.
For `CCCCN(C)C(=O)Cn1ccn2nc(-c3ccc(F)cc3)c(CO)c2c1=O` the value was 765 s; for `CCN1CCCC1CNS(=O)(=O)c1ccccc1-c1nc(-c2ccc(C)cc2)no1` (centres undefined), 746 s; for `Cc1ccc(OCC(=O)N(Cc2ccc(N(C)C)cc2)Cc2ccco2)cc1`, 795 s.
To `CCOc1ccc(-n2c(=O)c3sccc3n(Cc3nc(-c4ccc(C)cc4)no3)c2=O)cc1` belongs 1090 s; to `Cc1cc(C)c(S(=O)(=O)NC2CCCN(c3ccc(=O)n(C)n3)C2)c(C)c1` (centres undefined), 844 s.
For `O=C(CN1C(=O)CCCc2cc(S(=O)(=O)N3CCCCC3)ccc21)NCc1ccc(Cl)cc1` the value was 926 s.
In turn, `CCOC(=O)c1c(C)oc2ncnc(Nc3ccc(OC)c(Cl)c3)c12` gave an RP-LC retention time of 1270 s.
To `COc1ccc(C2(CNS(=O)(=O)c3ccc(OC)c(Cl)c3)CCOCC2)cc1` belongs 842 s.
